According to article PMC9127185, “A Pyridazinone Compound for Effectively Treating Non-alcoholic Steatohepatitis by Targeting THRβ” (Frontiers in Chemistry, 2022):
Read-outs that look alike come from different tables or passages of the source.

Assay: Pharmacokinetic study after oral administration, plasma by UPLC-MS/MS
Assay type: in vivo, C57BL/6J mice
Details: for Cmax / Tmax / CL/F / MRT last / MRT inf / half-life: C57BL/6J, mouse, mice plasma; for CL/F: read-out: CLz/F; for MRT last: read-out: MRT (0-t) (converted); for MRT inf: read-out: MRT (0-∞) (converted); for half-life: read-out: t1/2z
Method: Sorvall Biofuge Stratos high-speed refrigerated centrifuge was bought from the Thermo Fisher Scientific Co. Ltd. (Shanghai, China); EL204 electronic balance was selected from Shanghai Mettler-Toledo Instruments Co. Ltd. (Shanghai, China); IKA Vortex Genius 3 Vortex Mixer was purchased from Aika Instrument Equipment Co. Ltd. (Guangzhou, China); and the test was carried out using an AB SCIEX™ 5500 Q-Trap® mass spectrometer (Applied Biosystems, United States) coupled to a Shimadzu Prominence UPLC (ultra-performance liquid chromatography, Shimadzu, United States) system. It was equipped with a binary pump, a degasser, an auto sampler, and an automatic thermostatic column compartment. The column was utilized from Agela Technologies UHP Innoval C18 (2.1 × 50 mm, 1.9 μm; Agela Technologies; Made in China). The whole process with a gradient elution program is as follows: 0.00–0.50 min, 5% B; 0.50–1.50 min, 90% B; 1.50–3.00 min, 90% B; 3.00–3.10 min, 15% B; and 3.10–5.00 min, 15% B. The mobile phase was made up of 0.10% formic acid in water (A) and acetonitrile (B), and the velocity of flow was 0.50 ml/min. The auto sampler and column temperature were set at 15 and 40°C, respectively. The injection volume was 1 μl. The Q-Trap mass spectrometer was operated with positive electrospray ionization source (ESI) and scanned using the multiple-reaction monitoring (MRM) mode. The Analyst® software version 1.6.3 (Applied Bio-systems, AB SCIEX™, United States) was used to control the UPLC-MS/MS system. The best of the YWS01125 parameters was curtain gas, 35 psi; collision gas, medium; ion spray voltage, 5500 V; temperature, 500°C; ion source gas 1, 50 psi; and ion source gas 2, 50 psi. The quantitative analysis ion pairs of YWS01125 and MGL-3196 (IS) were m/z 446.2 → 375 and m/z 435.2 → 182, individually. The suitable collision energy (CE) of YWS01125 and IS was 42 and 50 eV, respectively, and the decluttering voltage (DP) was 160 and 180 V, respectively.
The frozen mice plasma samples and tissue homogenates were thawed at room temperature, vortexed for 1 min, then taken out in 10-μl aliquots in a 1.50-ml centrifuge tube, and this was then mixed with 1 μl of standard solution and 50 μl of internal standard (IS) solution, which was then dissolved and diluted with acetonitrile. Subsequently, it was vortexed for 3 min and at 14,000 rpm centrifugation for 5 min. The adopted 1 μl of the supernatant was used for sample injection analysis.
A total of 18 C57BL/6J mice were given YWS01125 by oral administration with a dose of 10, 20, and 40 mg/kg, respectively ([Lally et al., 2019]; [Kelly et al., 2014]; [Motamed et al., 2017]) (with the concentration of drug administration selected according to the study by Kelly et al.). The blood samples of 20 μl were collected and placed in heparinized tubes from the ophthalmic venous plexus before and at 0.03, 0.08, 0.16, 0.25, 0.50, 1, 2, 4, 6, 8, 12, and 24 h. The samples were immediately centrifuged at 14,000 rpm for 10 min at 4°C. The plasma was separated and stored below −80°C until UHPLC-MS/MS analysis.
The validated method was applied to the pharmacokinetic study of YWS01125 in normal C57BL/6J mice after oral administration, at doses of 10, 20, and 40 mg/kg suspensions with sodium carboxymethyl cellulose (CMCNa). YWS01125 was measured in the plasma until the last blood collection time (24 h). The main pharmacokinetic parameters of YWS01125 were processed by a no compartmental model using the DAS 2.0 software package, and the pharmacokinetic parameters are summarized in Table 4.

Structure (SMILES): N#Cc1cn(-c2cc(Cl)c(Oc3cc(C4CCC4)c(=O)[nH]n3)c(Cl)c2)c(=O)[nH]c1=O [YWS01125, 1-(3,5-dichloro-4-((5-cyclobutyl-6-oxo-1,6-dihydropyridazin-3-yl)oxy)phenyl)-2,4-dioxo-1,2,3,4-tetrahydropyrimidine-5-carbonitrile]
- Cmax (oral 10 mg/kg): 188 ± 30 ng/mL
- Tmax (oral 10 mg/kg): 0.917 h
- CL/F (oral 10 mg/kg): 160 ± 20 mL/min/kg
- MRT last (oral 10 mg/kg): 3.42 h
- MRT inf (oral 10 mg/kg): 4.04 h
- half-life (oral 10 mg/kg): 3.15 ± 1.59 h
- Cmax (oral 20 mg/kg): 293 ± 60.4 ng/mL
- Tmax (oral 20 mg/kg): 1 h
- CL/F (oral 20 mg/kg): 250 ± 280 mL/min/kg
- MRT last (oral 20 mg/kg): 3.06 h
- MRT inf (oral 20 mg/kg): 3.4 h
- half-life (oral 20 mg/kg): 2.54 ± 0.633 h
- Cmax (oral 40 mg/kg): 382 ± 30.6 ng/mL
- Tmax (oral 40 mg/kg): 0.917 h
- CL/F (oral 40 mg/kg): 280 ± 50 mL/min/kg
- MRT last (oral 40 mg/kg): 4.57 h
- MRT inf (oral 40 mg/kg): 4.94 h
- half-life (oral 40 mg/kg): 3.03 ± 1.07 h
- Time of highest concentration in the blood (mice, oral): 1 h
